In ChEMBL document CHEMBL3885881, “DrugMatrix”:

Organism: Rattus norvegicus
Assay: DrugMatrix - Regimen: Daily Repeat
Assay type: toxicity, organism-based, Sprague-Dawley
Parameters: regimen Daily Repeat, gender Male, age 6-8 weeks
Conditions: in vivo, po, route oral GAVAGE, vehicle 100 % WATER; for ABSOLUTE BASOPHIL / ABSOLUTE EOSINOPHIL / ABSOLUTE LYMPHOCYTE / ABSOLUTE MONOCYTE / ABSOLUTE SEGMENTED NEUTROPHIL / BASOPHIL / EOSINOPHIL / ERYTHROCYTE COUNT / HEMATOCRIT / HEMOGLOBIN / LEUKOCYTE COUNT / LYMPHOCYTE / MEAN CORPUSCULAR HEMOGLOBIN / MEAN CORPUSCULAR HEMOGLOBIN CONCENTRATION / MEAN CORPUSCULAR VOLUME / MONOCYTE / NEUTROPHIL / NUCLEATED RED BLOOD CELLS / PLATELET COUNT: tissue Blood; for ALANINE AMINOTRANSFERASE / ALBUMIN / ALKALINE PHOSPHATASE / ASPARTATE AMINOTRANSFERASE / BLOOD UREA NITROGEN / CARBON DIOXIDE / CHLORIDE / CHOLESTEROL / CREATINE PHOSPHOKINASE / CREATININE / GLUCOSE / LACTATE DEHYDROGENASE / LIPASE / PHOSPHORUS / POTASSIUM / SODIUM / TOTAL BILIRUBIN / TOTAL PROTEIN / URIC ACID: tissue Plasma
[1] = 0 mg/kg, 72 h, dose level Control, time 3 day
[2] = 0 mg/kg, 120 h, dose level Control, time 5 day
[3] = 5 mg/kg, 72 h, dose level Low, time 3 day

COc1cc2nc(N3CCN(C(=O)C4COc5ccccc5O4)CC3)nc(N)c2cc1OC (centres undefined) [DOXAZOSIN]
ABSOLUTE BASOPHIL [1]: 0 CELLS/uL
ABSOLUTE EOSINOPHIL [1]: 86.33 CELLS/uL
ABSOLUTE LYMPHOCYTE [1]: 12090.17 CELLS/uL
ABSOLUTE MONOCYTE [1]: 166.67 CELLS/uL
ABSOLUTE SEGMENTED NEUTROPHIL [1]: 1090.17 CELLS/uL
BASOPHIL [1]: 0%
EOSINOPHIL [1]: 0.67%
ERYTHROCYTE COUNT [1]: 5.57 x10E6/uL
HEMATOCRIT [1]: 35.33%
HEMOGLOBIN [1]: 13.83 G/DL
LEUKOCYTE COUNT [1]: 13.43 x10E3/uL
LYMPHOCYTE [1]: 89.83%
MEAN CORPUSCULAR HEMOGLOBIN [1]: 24.88 pg
MEAN CORPUSCULAR HEMOGLOBIN CONCENTRATION [1]: 39.15 G/DL
MEAN CORPUSCULAR VOLUME [1]: 63.52 fL
MONOCYTE [1]: 1.17%
NEUTROPHIL [1]: 8.33%
NUCLEATED RED BLOOD CELLS [1]: 0 /100WBC
PLATELET COUNT [1]: 1181.33 x10E3/uL
ALANINE AMINOTRANSFERASE [1]: 48.33 u/L
ALBUMIN [1]: 4.1 G/DL
ALKALINE PHOSPHATASE [1]: 395 u/L
ASPARTATE AMINOTRANSFERASE [1]: 81.83 u/L
BLOOD UREA NITROGEN [1]: 15.83 mg/dL
CARBON DIOXIDE [1]: 24.17 mmol/L
CHLORIDE [1]: 103.83 MEQ/L
CHOLESTEROL [1]: 63.67 mg/dL
CREATINE PHOSPHOKINASE [1]: 372.83 u/L
CREATININE [1]: 0.18 mg/dL
GLUCOSE [1]: 173.83 mg/dL
LACTATE DEHYDROGENASE [1]: 188.33 u/L
LIPASE [1]: 9.5 u/L
PHOSPHORUS [1]: 11.95 mg/dL
POTASSIUM [1]: 5.99 MEQ/L
SODIUM [1]: 144.43 MEQ/L
TOTAL BILIRUBIN [1]: 0.15 mg/dL
TOTAL PROTEIN [1]: 5.95 G/DL
URIC ACID [1]: 1.82 mg/dL
ABSOLUTE BASOPHIL [2]: 0 CELLS/uL
ABSOLUTE EOSINOPHIL [2]: 26.67 CELLS/uL
ABSOLUTE LYMPHOCYTE [2]: 7583.83 CELLS/uL
ABSOLUTE MONOCYTE [2]: 131.33 CELLS/uL
ABSOLUTE SEGMENTED NEUTROPHIL [2]: 674.83 CELLS/uL
BASOPHIL [2]: 0%
EOSINOPHIL [2]: 0.33%
ERYTHROCYTE COUNT [2]: 5.78 x10E6/uL
HEMATOCRIT [2]: 36.48%
HEMOGLOBIN [2]: 14.03 G/DL
LEUKOCYTE COUNT [2]: 8.42 x10E3/uL
LYMPHOCYTE [2]: 89.83%
MEAN CORPUSCULAR HEMOGLOBIN [2]: 24.3 pg
MEAN CORPUSCULAR HEMOGLOBIN CONCENTRATION [2]: 38.52 G/DL
MEAN CORPUSCULAR VOLUME [2]: 63.15 fL
MONOCYTE [2]: 1.67%
NEUTROPHIL [2]: 8.17%
NUCLEATED RED BLOOD CELLS [2]: 0 /100WBC
PLATELET COUNT [2]: 1186.67 x10E3/uL
ALANINE AMINOTRANSFERASE [2]: 50.17 u/L
ALBUMIN [2]: 4.07 G/DL
ALKALINE PHOSPHATASE [2]: 367.5 u/L
ASPARTATE AMINOTRANSFERASE [2]: 81.67 u/L
BLOOD UREA NITROGEN [2]: 16.17 mg/dL
CARBON DIOXIDE [2]: 32.33 mmol/L
CHLORIDE [2]: 101.5 MEQ/L
CHOLESTEROL [2]: 65.33 mg/dL
CREATINE PHOSPHOKINASE [2]: 255.33 u/L
CREATININE [2]: 0.17 mg/dL
GLUCOSE [2]: 139.33 mg/dL
LACTATE DEHYDROGENASE [2]: 95 u/L
LIPASE [2]: 10.5 u/L
PHOSPHORUS [2]: 10.38 mg/dL
POTASSIUM [2]: 6.11 MEQ/L
SODIUM [2]: 145.55 MEQ/L
TOTAL BILIRUBIN [2]: 0.17 mg/dL
TOTAL PROTEIN [2]: 5.98 G/DL
URIC ACID [2]: 0.93 mg/dL
ABSOLUTE BASOPHIL [3]: 0 CELLS/uL
ABSOLUTE EOSINOPHIL [3]: 0 CELLS/uL
ABSOLUTE LYMPHOCYTE [3]: 13989.67 CELLS/uL
ABSOLUTE MONOCYTE [3]: 387.67 CELLS/uL
ABSOLUTE SEGMENTED NEUTROPHIL [3]: 2189.33 CELLS/uL
BASOPHIL [3]: 0%
EOSINOPHIL [3]: 0%
ERYTHROCYTE COUNT [3]: 5.22 x10E6/uL
HEMATOCRIT [3]: 34.5%
HEMOGLOBIN [3]: 13.43 G/DL
LEUKOCYTE COUNT [3]: 16.57 x10E3/uL
LYMPHOCYTE [3]: 84.33%
MEAN CORPUSCULAR HEMOGLOBIN [3]: 25.77 pg
MEAN CORPUSCULAR HEMOGLOBIN CONCENTRATION [3]: 38.97 G/DL
MEAN CORPUSCULAR VOLUME [3]: 66.17 fL
MONOCYTE [3]: 2.33%
NEUTROPHIL [3]: 13.33%
NUCLEATED RED BLOOD CELLS [3]: 0 /100WBC
PLATELET COUNT [3]: 1263.33 x10E3/uL
ALANINE AMINOTRANSFERASE [3]: 47.33 u/L
ALBUMIN [3]: 3.93 G/DL
ALKALINE PHOSPHATASE [3]: 317.67 u/L
ASPARTATE AMINOTRANSFERASE [3]: 97 u/L
BLOOD UREA NITROGEN [3]: 16.33 mg/dL
CARBON DIOXIDE [3]: 22 mmol/L
CHLORIDE [3]: 103 MEQ/L
CHOLESTEROL [3]: 59.67 mg/dL
CREATINE PHOSPHOKINASE [3]: 763 u/L
CREATININE [3]: 0.18 mg/dL
GLUCOSE [3]: 187 mg/dL
LACTATE DEHYDROGENASE [3]: 544.33 u/L
LIPASE [3]: 9 u/L
PHOSPHORUS [3]: 11.9 mg/dL
POTASSIUM [3]: 5.79 MEQ/L
SODIUM [3]: 142.7 MEQ/L
TOTAL BILIRUBIN [3]: 0.17 mg/dL
TOTAL PROTEIN [3]: 5.73 G/DL
URIC ACID [3]: 1.7 mg/dL
